In assay [1] the test system is detached leaves of Triticum aestivum cv. Hereward. The assay can be described thus: Membrane lipid peroxidation (MDA, TBA method) in detached wheat leaves during dark senescence. Type of assay: in vivo. The following applies: four days in the dark, Control 18.9 (±2.2). An outline of the steps:
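Leaf tips from 7-day wheat seedlings were kept with compound or kinetin for four days in the dark. 100 mg tissue was extracted in 80% methanol and heated 30 min at 95 °C with 0.5% TBA/0.1% TCA. MDA came from A532 minus A600, using 155 mM^−1cm^−1.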

For assay [2], the system named is excised wheat leaf tips (Triticum aestivum cv. Hereward). The assay can be described thus: Senescence inhibition on winter wheat leaf segments (retention of chlorophyll). It counts as in vivo. The settings on record: 10^−4 mol/L; 96 hours in the dark; activity of kinetin set at 100%. The procedure, abridged: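 First-leaf tips from 7-day-old wheat seedlings stood with their bases in test solution for 96 h in the dark at 25° C. Chlorophyll was then extracted in hot 80% ethanol and read at 665 nm. Activity at each compound's best concentration is relative to 10^−4 M kinetin (100%), as means of five replicates.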

Assay [3] deals with human diploid fibroblasts (HDF cells; HDF25, HDF45, HDF80). Put plainly: Inhibition of human cell aging: senescent cells by beta-galactosidase staining. Type of assay: cell-based. The following applies: for SENESCENT CELLS (%) HDF25: human diploid fibroblasts passage 25, beta-galactosidase staining; for SENESCENT CELLS (%) HDF45: human diploid fibroblasts passage 45, beta-galactosidase staining; for SENESCENT CELLS (%) HDF80: human diploid fibroblasts passage 80, beta-galactosidase staining. The procedure, abridged:
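Cells of passages 25, 45 and 80 fixed 5 min at room temperature in 2% formaldehyde/0.2% glutaraldehyde in PBS, then incubated at 37° C with beta-galactosidase substrate. Senescent cells identified by blue staining.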

The nature of assay [4]: Radical scavenging activity determined by ORAC (Oxygen Radical Absorbance Capacity). Type of assay: biochemical. The settings on record: Mean ± SD (n = 3); net area under the curve relative to trolox, equimolar basis. The procedure:
The ability of compounds to scavenge free radicals in vitro was determined by Oxygen Radical Absorbance Capacity (ORAC) method. Fluorescein (100 μL, […]) and 25 μL of compound solution were added into each working well in a 96-well microplate preincubated at 37° C. Thereafter, 25 μL of 250 mM AAPH was quickly added, microplate was shaken for 5 s and the fluorescence (Ex. 485 nm, Em. 510 nm) was read every 3 min over 90 min by using microplate reader Infinite 200 (TECAN, Switzerland). The net area under the curve was used to express antioxidant activity relative to trolox which was used as a standard.

For `C/C(=C\CNc1ncnc2c1nc(Br)n2C1CCCCO1)CO` (stereo not shown) [Compound 24, (E)-8-Bromo-6-(4-hydroxy-3-methylbut-2-en-1-ylamino)-9-(tetrahydropyran-2-yl)-9H-purine], the “MDA (nmol/g FW)” value in assay [1] is on record as 11.4 (±0.9) nmol/g FW. In assay [2], the “Activity (%) (s.d.), retention of chlorophyll” value (“Activity (%) (s.d.), retention” below) is reported as 123 (±6) %. Further, in assay [3], the “SENESCENT CELLS (%) HDF25” value was 3%, the “SENESCENT CELLS (%) HDF45” value came out at 5% and the “SENESCENT CELLS (%) HDF80” value worked out at 21%.

On to `Fc1cccc(CNc2ncnc3c2nc(Br)n3C2CCCCO2)c1` (stereo not shown) [Compound 26], for which, in assay [2], the “Activity (%) (s.d.), retention” value was 117 (±5) %. In addition, in assay [3], the “SENESCENT CELLS (%) HDF25” value stood at 2%, the “SENESCENT CELLS (%) HDF45” value was 5% and the “SENESCENT CELLS (%) HDF80” value is recorded as 19%.

Regarding `Fc1ccc(CNc2ncnc3c2nc(Br)n3C2CCCCO2)cc1F` (stereo not shown) [Compound 27], in assay [2], the “Activity (%) (s.d.), retention” value is recorded as 124 (±4) %. In addition, in assay [3], the “SENESCENT CELLS (%) HDF25” value came out at 2%, the “SENESCENT CELLS (%) HDF45” value was 4% and the “SENESCENT CELLS (%) HDF80” value was determined as 21%.

Turning to `C/C(=C\CNc1ncnc2c1nc(Cl)n2C1CCCO1)CO` (stereo not shown) [Compound 64], the “Activity (%) (s.d.), retention” value in assay [2] was 123 (±4) %. Also, in assay [3], the “SENESCENT CELLS (%) HDF25” value was 3%, the “SENESCENT CELLS (%) HDF45” value came to 4% and the “SENESCENT CELLS (%) HDF80” value was found to be 8%.

In the case of `COc1cccc(CNc2ncnc3c2nc(Cl)n3C2CCCO2)c1` (stereo not shown) [Compound 69], the “Activity (%) (s.d.), retention” value in assay [2] is 115 (±4) %. In assay [3], the “SENESCENT CELLS (%) HDF25” value is 3%, the “SENESCENT CELLS (%) HDF45” value was 4% and the “SENESCENT CELLS (%) HDF80” value turned out to be 14%.

Consider `COc1nc2c(NCc3ccco3)ncnc2n1C1CCCCO1` (stereo not shown) [Compound 124, 6-Furfurylamino-8-methoxy-9-(tetrahydropyran-2-yl)-9H-purine], for which the “ORAC (compound/trolox ratio)” value in assay [4] stood at 30.1 ± 3.1. In addition, the “MDA (nmol/g FW)” value in assay [1] is given as 10.3 (±0.7) nmol/g FW.

`CSc1nc2c(NCc3ccco3)ncnc2n1C1CCCCO1` (stereo not shown) [Compound 145, 6-Furfurylamino-8-methylsulfanyl-9-(tetrahydropyran-2-yl)-9H-purine]: the “ORAC (compound/trolox ratio)” value in assay [4] was 1.3 ± 0.1. Besides, the “MDA (nmol/g FW)” value in assay [1] is recorded as 9.6 (±0.8) nmol/g FW.
